Measured values reported in the supplement of paper PMC13380429.

Assays:
[1] = test system: A549-ACE2 infected with SARS-CoV-2; assay: morphology score (similarity to uninfected cells); higher = more like uninfected cells; settings: 24 h
[2] = test system: A549-ACE2 infected with SARS-CoV-2; assay: cell count relative to DMSO; higher = less toxic; settings: 24 h
Caco-2 [3] = assay: relative viability EC50 (midpoint between 100% and the lowest measured viability); higher = less toxic; settings: 72 h
Calu-3 [4] = assay: as above; settings: 72 h
Vero E6 [5] = assay: as above; settings: 72 h
U2OS [6] = assay: cell viability relative to DMSO; higher = less toxic; settings: 72 h
HepG2 [7] = assay: as above; settings: 72 h
Caco-2 [8] = assay: as above; settings: 72 h
Calu-3 [9] = assay: as above; settings: 72 h
Vero E6 [10] = assay: as above; settings: 72 h
U2OS [11] = assay: drug sensitivity score (DSS) for viability; higher = more toxic; extreme values may be limits of the assay; settings: 72 h
HepG2 [12] = assay: as above; settings: 72 h
Caco-2 [13] = assay: as above; settings: 72 h
Calu-3 [14] = assay: as above; settings: 72 h
Vero E6 [15] = assay: as above; settings: 72 h
A549-ACE2 = assay: drug-induced phospholipidosis relative to tamoxifen; higher = more phospholipidosis
[16] = test system: A549-ACE2 infected with SARS-CoV-2; assay: SARS-CoV-2 infection rate relative to DMSO; higher = more infection; settings: 24 h

COc1cc2ncnc(Nc3cccc(Br)c3)c2cc1OC
Settings | SARS-CoV-2 infection rate, [16] [%] | cell count, [2] [%] | cell viability, Caco-2 [8] [%] | cell viability, Calu-3 [9] [%] | cell viability, HepG2 [7] [%] | cell viability, U2OS [6] [%] | cell viability, Vero E6 [10] [%] | morphology score, [1]
1 nM | – | – | 88.5 | 102 | 103 | 93.7 | 101 | –
10 nM | – | – | 109 | 84.4 | 86.4 | 98.4 | 84.6 | –
100 nM | – | – | 95.1 | 96.5 | 92.6 | 97.6 | 102 | –
0.3 µM | 107 | 87 | – | – | – | – | – | -0.21
1000 nM | – | – | 69.6 | 40.4 | 92.1 | 93.2 | 79.7 | –
3 µM | 86 | 105 | – | – | – | – | – | 0.38
10 µM | 33 | 92 | – | – | – | – | – | 0.64
10000 nM | – | – | 47.2 | 23.6 | 71.6 | 72.9 | 49.6 | –
30 µM | 64 | 29 | – | – | – | – | – | -0.06

Settings | drug sensitivity score | relative viability EC50 [nM]
Caco-2 [3] | – | 774
Caco-2 [13] | 6.4 | –
Calu-3 [4] | – | 497
Calu-3 [14] | 11.7 | –
HepG2 [12] | 2.1 | –
U2OS [11] | 2.1 | –
Vero E6 [5] | – | 1170
Vero E6 [15] | 5.4 | –

drug-induced phospholipidosis [%], A549-ACE2
Settings | 0.3 µM | 0.833333 µM | 3.33333 µM | 6.66667 µM | 10 µM | 30 µM
24 h | 1.6 | -1.36 | 0.82 | 3.17 | 1.18 | 9.67
48 h | -2.83 | -1.17 | -1.23 | -4.71 | -0.44 | –
72 h | 2.41 | -2.62 | -2.62 | -1.43 | 0.652 | –
